{"source": "patent US20230146455A1", "about": "“TREATMENT OF INFLAMMATORY DISEASES WITH PEPTIDES AND PHARMACEUTICAL COMPOSITIONS” (Yuyu Pharma, Inc., priority 2020, published 2023)", "key": {"[1]": {"system": "CCL2/JE/MCP-1", "assay": "Example 9 Luminex, LPS hPBMCs: CCL2/JE/MCP-1", "assay_type": "cell-based, human", "description": "(§1) Treatment Human PBMCs were pretreated with YY-101, YDE-011 and YDE-043 or reference compound; Xiidra® at various concentration (ranging from 1 nM to 100 uM) for 2 h before stimulation. An equal volume of 0.5% DMSO was used as a vehicle control. Then, the cells were treated with LPS at 5 ug/ml. The supernatants from treated cells were harvested at 24 h and placed in a 96 well for Luminex cytokine & chemokine profiling using a Luminex 200 multiplex assay (Luminex; R&D system, USA).\n(§2) The main study arm with triplicate wells per group in a 24-well plate: • 1. Blank • 2. PBMC: 0.5% DMSO • 3. PBMC+LPS (5 ug/ml) • 4. PBMC+YY-101 100 uM • 5. PBMC+YY-101 10 uM • 6. PBMC+YY-101 1 uM • 7. PBMC+YY-101 0.1 uM • 8. PBMC+YY-101 0.01 uM • 9. PBMC+LPS (5 ug/ml)+Xiidra®100 uM • 10. PBMC+LPS (5 ug/ml)+Xiidra® 10 uM • 11. PBMC+LPS (5 ug/ml)+Xiidra® 1 uM • 12. PBMC+LPS (5 ug/ml)+Xiidra®0.1 uM • 13. PBMC+LPS (5 ug/ml)+Xiidra®0.01 uM • 14. PBMC+LPS (5 ug/ml)+Xiidra®0.001 uM • 15. PBMC+LPS (5 ug/ml)+YY-101 100 uM • 16. PBMC+LPS (5 ug/ml)+YY-101 10 uM • 17. PBMC+LPS (5 ug/ml)+YY-101 1 uM • 18. PBMC+LPS (5 ug/ml)+YY-101 0.1 uM • 19. PBMC+LPS (5 ug/ml)+YY-101 0.01 uM • 20. PBMC+LPS (5 ug/ml)+YY-101 0.001 uM • 21. PBMC+LPS (5 ug/ml)+YDE-011 100 uM • 22. PBMC+LPS (5 ug/ml)+YDE-011 10 uM • 23. PBMC+LPS (5 ug/ml)+YDE-011 1 uM • 24. PBMC+LPS (5 ug/ml)+YDE-011 0.1 uM • 25. PBMC+LPS (5 ug/ml)+YDE-011 0.01 uM • 26. PBMC+LPS (5 ug/ml)+YDE-011 0.001 uM • 27. PBMC+LPS (5 ug/ml)+YDE-043 100 uM • 28. PBMC+LPS (5 ug/ml)+YDE-043 10 uM • 29. PBMC+LPS (5 ug/ml)+YDE-043 1 uM • 30. PBMC+LPS (5 ug/ml)+YDE-043 0.1 uM • 31. PBMC+LPS (5 ug/ml)+YDE-043 0.01 uM • 32. PBMC+LPS (5 ug/ml)+YDE-043 0.001 uM\n(§3) Multiplex assay was used to measure 30 cytokines and chemokines. The 1:2, 1:10 and 1:200 diluted cell supernatant and serial dilution of the standard were dispensed into a 96 well plate at 50 ul/well. Then, the pre-mixed cocktail of antibody-coated magnetic beads was dispensed at 50 ul/well and incubated at room temperature for 2 h in a horizontal orbital microplate shaker at 800±500 rpm. The beads were washed using a magnetic device to prevent loss. The biotin-antibody was dispensed in 50 ul of each well and incubated at room temperature for 1 h in a shaker at 800±500 rpm. After washing, streptavidin-PE was added at 50 ul/well and incubated at room temperature for 30 min in a shaker under the same conditions. Finally, after washing, wash buffer (100 ul/well) was added to the plate and incubated in a shaker for 2 min. The Luminex™ 200 setting were set according to the manufacturer's protocol. The data was calculated with a standard five-parameter logistic nonlinear regression analysis of the data (xPonent software 4.2, USA). The levels of cytokine/chemokine are normalized to the live cell counts (1×10^5 cells/mL) and presented as concentrations per mL (pg/mL or ng/mL)."}, "[2]": {"system": "IFN-gamma", "assay": "Example 9 Luminex, LPS hPBMCs: IFN-gamma", "assay_type": "cell-based, human", "description": "as §1, §2, §3"}, "[3]": {"conditions": "PBMC + LPS(5 ug/ml) + test article 0.001 uM, Mean"}, "[4]": {"conditions": "PBMC + LPS(5 ug/ml) + test article 0.001 uM, individual replicates"}, "[5]": {"conditions": "PBMC + LPS(5 ug/ml) + test article 0.01 uM, Mean"}, "[6]": {"conditions": "PBMC + LPS(5 ug/ml) + test article 0.01 uM, individual replicates"}, "[7]": {"conditions": "PBMC + LPS(5 ug/ml) + test article 0.1 uM, Mean"}, "[8]": {"conditions": "PBMC + LPS(5 ug/ml) + test article 0.1 uM, individual replicates"}, "[9]": {"conditions": "PBMC + LPS(5 ug/ml) + test article 1 uM, Mean"}, "[10]": {"conditions": "PBMC + LPS(5 ug/ml) + test article 1 uM, individual replicates"}, "[11]": {"conditions": "PBMC + LPS(5 ug/ml) + test article 10 uM, Mean"}, "[12]": {"conditions": "PBMC + LPS(5 ug/ml) + test article 10 uM, individual replicates"}, "[13]": {"conditions": "PBMC + LPS(5 ug/ml) + test article 100 uM, Mean"}, "[14]": {"conditions": "PBMC + LPS(5 ug/ml) + test article 100 uM, individual replicates"}, "[15]": {"conditions": "PBMC + LPS(5 ug/ml) + test article 0.001 uM, single replicates"}, "[16]": {"conditions": "PBMC + LPS(5 ug/ml) + test article 0.01 uM, single replicates"}, "[17]": {"conditions": "PBMC + LPS(5 ug/ml) + test article 0.1 uM, single replicates"}, "[18]": {"conditions": "PBMC + LPS(5 ug/ml) + test article 1 uM, single replicates"}, "[19]": {"conditions": "PBMC + LPS(5 ug/ml) + test article 10 uM, single replicates"}, "[20]": {"conditions": "PBMC + LPS(5 ug/ml) + test article 100 uM, single replicates"}}, "note": "Where “and” joins values, the source holds several entries; their conditions need not be identical. Equal entries are not always repeated. Where a SMILES comes first, the peptide text is derived from it. [ ]: non-standard residue; d: D form. Hyp = O=C(O)[C@@H]1C[C@@H](O)CN1"}
{"smiles": "CC(C)C[C@H](NC(=O)CNC(=O)[C@H](CC(C)C)NC(=O)[C@H](CCC(N)=O)NC(=O)CNC(=O)[C@@H]1C[C@@H](O)CN1)C(=O)N[C@@H](C)C(=O)NCC(=O)N1CCC[C@H]1C(=O)N[C@@H](CCCCN)C(=O)O", "note": "[YDE-011] (H-[Hyp]GQLGLAGPK-OH)", "values": [{"measurement": "Concentration", "setting": "[1]; [3]", "value": 1881.3, "unit": "pg/mL"}, {"measurement": "conc/live cell", "setting": "[1]; [3]", "value": 355.2, "unit": "pg/10^5"}, {"measurement": "Concentration", "setting": "[1]; [4]", "value": "1856.7 pg/mL and 1905.5 pg/mL and 1881.6 pg/mL"}, {"measurement": "conc/live cell", "setting": "[1]; [4]", "value": "412.6 pg/10^5 and 328.5 pg/10^5 and 324.4 pg/10^5"}, {"measurement": "Concentration", "setting": "[1]; [5]", "value": 1974.9, "unit": "pg/mL"}, {"measurement": "conc/live cell", "setting": "[1]; [5]", "value": 339.7, "unit": "pg/10^5"}, {"measurement": "Concentration", "setting": "[1]; [6]", "value": "1895.6 pg/mL and 2063.3 pg/mL and 1965.9 pg/mL"}, {"measurement": "conc/live cell", "setting": "[1]; [6]", "value": "300.9 pg/10^5 and 332.8 pg/10^5 and 385.5 pg/10^5"}, {"measurement": "Concentration", "setting": "[1]; [7]", "value": 1708.3, "unit": "pg/mL"}, {"measurement": "conc/live cell", "setting": "[1]; [7]", "value": 300.6, "unit": "pg/10^5"}, {"measurement": "Concentration", "setting": "[1]; [8]", "value": "1699.1 pg/mL and 1759.6 pg/mL and 1666.0 pg/mL"}, {"measurement": "conc/live cell", "setting": "[1]; [8]", "value": "257.4 pg/10^5 and 351.9 pg/10^5 and 292.3 pg/10^5"}, {"measurement": "Concentration", "setting": "[1]; [9]", "value": 1797.0, "unit": "pg/mL"}, {"measurement": "conc/live cell", "setting": "[1]; [9]", "value": 358.5, "unit": "pg/10^5"}, {"measurement": "Concentration", "setting": "[1]; [10]", "value": "1795.6 pg/mL and 1880.8 pg/mL and 1714.5 pg/mL"}, {"measurement": "conc/live cell", "setting": "[1]; [10]", "value": "326.5 pg/10^5 and 391.8 pg/10^5 and 357.2 pg/10^5"}, {"measurement": "Concentration", "setting": "[1]; [11]", "value": 1564.4, "unit": "pg/mL"}, {"measurement": "conc/live cell", "setting": "[1]; [11]", "value": 297.3, "unit": "pg/10^5"}, {"measurement": "Concentration", "setting": "[1]; [12]", "value": "1502.6 pg/mL and 1615.2 pg/mL and 1575.4 pg/mL"}, {"measurement": "conc/live cell", "setting": "[1]; [12]", "value": "278.3 pg/10^5 and 278.5 pg/10^5 and 335.2 pg/10^5"}, {"measurement": "Concentration", "setting": "[1]; [13]", "value": 281.9, "unit": "pg/mL"}, {"measurement": "conc/live cell", "setting": "[1]; [13]", "value": 46.5, "unit": "pg/10^5"}, {"measurement": "Concentration", "setting": "[1]; [14]", "value": "252.0 pg/mL and 301.1 pg/mL and 292.6 pg/mL"}, {"measurement": "conc/live cell", "setting": "[1]; [14]", "value": "41.3 pg/10^5 and 49.4 pg/10^5 and 48.8 pg/10^5"}, {"measurement": "Concentration (IFN-gamma)", "setting": "[2]; [3]", "value": 773.0, "unit": "pg/mL"}, {"measurement": "conc/live cell (IFN-gamma)", "setting": "[2]; [3]", "value": 143.6, "unit": "pg/10^5"}, {"measurement": "Concentration (IFN-gamma)", "setting": "[2]; [15]", "value": "624.6 pg/mL and 730.3 pg/mL and 964.1 pg/mL"}, {"measurement": "conc/live cell (IFN-gamma)", "setting": "[2]; [15]", "value": "138.8 pg/10^5 and 125.9 pg/10^5 and 166.2 pg/10^5"}, {"measurement": "Concentration (IFN-gamma)", "setting": "[2]; [5]", "value": 792.2, "unit": "pg/mL"}, {"measurement": "conc/live cell (IFN-gamma)", "setting": "[2]; [5]", "value": 135.8, "unit": "pg/10^5"}, {"measurement": "Concentration (IFN-gamma)", "setting": "[2]; [16]", "value": "773.0 pg/mL and 753.6 pg/mL and 849.9 pg/mL"}, {"measurement": "conc/live cell (IFN-gamma)", "setting": "[2]; [16]", "value": "124.7 pg/10^5 and 147.8 pg/10^5 and 134.9 pg/10^5"}, {"measurement": "Concentration (IFN-gamma)", "setting": "[2]; [7]", "value": 812.6, "unit": "pg/mL"}, {"measurement": "conc/live cell (IFN-gamma)", "setting": "[2]; [7]", "value": 141.6, "unit": "pg/10^5"}, {"measurement": "Concentration (IFN-gamma)", "setting": "[2]; [17]", "value": "892.0 pg/mL and 753.6 pg/mL and 792.3 pg/mL"}, {"measurement": "conc/live cell (IFN-gamma)", "setting": "[2]; [17]", "value": "135.1 pg/10^5 and 150.7 pg/10^5 and 139.0 pg/10^5"}, {"measurement": "Concentration (IFN-gamma)", "setting": "[2]; [9]", "value": 987.2, "unit": "pg/mL"}, {"measurement": "conc/live cell (IFN-gamma)", "setting": "[2]; [9]", "value": 196.0, "unit": "pg/10^5"}, {"measurement": "Concentration (IFN-gamma)", "setting": "[2]; [18]", "value": "1088.2 pg/mL and 909.1 pg/mL and 964.1 pg/mL"}, {"measurement": "conc/live cell (IFN-gamma)", "setting": "[2]; [18]", "value": "197.9 pg/10^5 and 189.4 pg/10^5 and 200.9 pg/10^5"}, {"measurement": "Concentration (IFN-gamma)", "setting": "[2]; [11]", "value": 841.5, "unit": "pg/mL"}, {"measurement": "conc/live cell (IFN-gamma)", "setting": "[2]; [11]", "value": 158.5, "unit": "pg/10^5"}, {"measurement": "Concentration (IFN-gamma)", "setting": "[2]; [19]", "value": "973.6 pg/mL and 861.4 pg/mL and 689.4 pg/mL"}, {"measurement": "conc/live cell (IFN-gamma)", "setting": "[2]; [19]", "value": "180.3 pg/10^5 and 148.5 pg/10^5 and 146.7 pg/10^5"}, {"measurement": "Concentration (IFN-gamma)", "setting": "[2]; [13]", "value": 534.1, "unit": "pg/mL"}, {"measurement": "conc/live cell (IFN-gamma)", "setting": "[2]; [13]", "value": 88.0, "unit": "pg/10^5"}, {"measurement": "Concentration (IFN-gamma)", "setting": "[2]; [20]", "value": "604.8 pg/mL and 492.8 pg/mL and 504.9 pg/mL"}, {"measurement": "conc/live cell (IFN-gamma)", "setting": "[2]; [20]", "value": "99.1 pg/10^5 and 80.8 pg/10^5 and 84.1 pg/10^5"}]}
